Assay results as given in patent US6046228A, “Anti-viral pharmaceutical compositions containing saturated 1,2-dithiaheterocyclic compounds and uses thereof” (priority 1999, dated 2000).
Where two headings read alike, the source gives them in different places.

What was measured:
Assay type in all cases: cell-based
HIV-1 WEJO(SI) = test: antiviral assay in PBL (p24), clinical isolate WEJO; details: Human immunodeficiency virus 1, cell-free p24
Description: (§1) Initial anti-HIV screening was performed with CEM-SS cells and HIV-1RFusing the XTT cytoprotection assay as previously described (Weislow et al., J. National Cancer Inst. 81: 577-586, (1989)). HIV-1 isolates included common laboratory stains (RF, IIIB and MN), as well as a panel of HIV-1 clinical isolates (Cushman et al., J. Med. Chem. 37: 3040-3050, (1994)). The pyridone-resistant HIV-1A17 isolate (Nunberg et al., J. Virol., 65: 4887-4892 (1991)) was obtained from Emilio Emini at Merck Sharpe and Dohme Laboratories. Phytohemagglutinin-stimulated human peripheral blood lymphocytes (PBLs) and fresh monocyte-macrophage (Mono/MF) cultures were prepared and utilized in antiviral assays as previously described (Rice et al., Proc. Nat'l. Academy Science, USA 90: 9721-9724, (1993)); (Cushman et al., J. Med. Chem. 37: 3040-3050, (1994)). EC50 values for these cultures indicate the drug concentration that provided a 50% reduction in viral p24 production. […] The compounds can be synthesized according to the teachings of Singh et al., Sulfur Letters 8: 107-114, (1988). The 4,5-cis-dihydroxy(1,1-dioxy-1,2,-dithiohexane) compound (NSC 624151) has been abbreviated as 624151 for convenience. […]

HIV-1 Clade C = test: XTT cytopathicity assay, HIV-1 clade; details: CEM-SS
Description: (§2) Initial anti-HIV screening was performed with CEM-SS cells and HIV-1RFusing the XTT cytoprotection assay as previously described (Weislow et al., J. National Cancer Inst. 81: 577-586, (1989)). HIV-1 isolates included common laboratory stains (RF, IIIB and MN), as well as a panel of HIV-1 clinical isolates (Cushman et al., J. Med. Chem. 37: 3040-3050, (1994)). The pyridone-resistant HIV-1A17 isolate (Nunberg et al., J. Virol., 65: 4887-4892 (1991)) was obtained from Emilio Emini at Merck Sharpe and Dohme Laboratories. Phytohemagglutinin-stimulated human peripheral blood lymphocytes (PBLs) and fresh monocyte-macrophage (Mono/MF) cultures were prepared and utilized in antiviral assays as previously described (Rice et al., Proc. Nat'l. Academy Science, USA 90: 9721-9724, (1993)); (Cushman et al., J. Med. Chem. 37: 3040-3050, (1994)). EC50 values for these cultures indicate the drug concentration that provided a 50% reduction in viral p24 production. […] The compounds can be synthesized according to the teachings of Singh et al., Sulfur Letters 8: 107-114, (1988). The 4,5-cis-dihydroxy(1,1-dioxy-1,2,-dithiohexane) compound (NSC 624151) has been abbreviated as 624151 for convenience. MT-2, MT-4, U1, HeLa-CD4-LTR-β-gal and 174xCEM cells were obtained from the AIDS Research and Reference Program (National Institute of Allergy and Infectious Disease, National Institutes of Health, Bethesda, Md. USA), as were the HIV-2MS and the AZT-resistant HIV-1G910-6 isolates.
(§3) ^a Anti-HIV studies utilizing lymphocytederived cell lines were
(§4) performed using the XTT cytopathicity assay, while antiviral assays

HIV-1 Clade B = test: XTT cytopathicity assay, HIV-1 clade; details: CEM-SS
Description: as §2, §3, §4

HIV-1 Clade F = test: XTT cytopathicity assay, HIV-1 clade; details: CEM-SS
Description: as §2, §3, §4

HIV-1 Clade A = test: XTT cytopathicity assay, HIV-1 clade; details: CEM-SS
Description: as §2, §3, §4

HIV-1 Clade D = test: XTT cytopathicity assay, HIV-1 clade; details: CEM-SS
Description: as §2, §3, §4

HIV-1, HIV-2 and SIV = test: range of antiviral action studies; details: in words
Description: as §1

HIV-1 N119(Nev^R) = test: XTT cytopathicity assay, nevirapine-resistant N119; details: CEM-SS
Description: as §1

HIV-1NL4-3 Y181C = test: XTT cytopathicity assay, NL4-3 site-directed RT mutant; details: MT-2, NL4-3 Y181C
Description: as §2, §3, §4

HIV-1NL4-3 V1081 = test: as above; details: MT-2, NL4-3 V1081
Description: as §2, §3, §4

HIV-1NL4-3 K103N = test: as above; details: MT-2, NL4-3 K103N
Description: as §2, §3, §4

HIV-1NL4-3 A986 = test: as above; details: MT-2, NL4-3 A986
Description: as §2, §3, §4

HIV-1NL4-3 V179D = test: as above; details: MT-2, NL4-3 V179D
Description: as §2, §3, §4

HIV-1NL4-3 Y188C = test: as above; details: MT-2, NL4-3 Y188C
Description: as §2, §3, §4

HIV-1NL4-3 4XAZT = test: as above; details: MT-2, NL4-3 4XAZT
Description: as §2, §3, §4

HIV-1NL4-3 L74V = test: as above; details: MT-2, NL4-3 L74V
Description: as §2, §3, §4

HIV-1NL4-3 V1061 = test: as above; details: MT-2, NL4-3 V1061
Description: as §2, §3, §4

HIV-1ADA = test: antiviral assay in monocyte-macrophage cultures (p24); details: Human immunodeficiency virus 1
Description: as §2, with “isolates. […]” for “isolates.”

O=S1(=O)C[C@H](O)[C@H](O)CS1 (relative stereo) [NSC 624151, cis-1,1-dioxo[1,2]dithiane-4,5-diol]
EC50 (HIV-1 WEJO(SI)): 7.59 µM
EC50 (HIV-1 Clade C): 2.9 µM
EC50 (HIV-1 Clade B): 5.5 µM
EC50 (HIV-1 Clade F): 69 µM
EC50 (HIV-1 Clade A): 22 µM
EC50 (HIV-1 Clade D): 20 µM
inhibition of replication of laboratory and drug-resistant HIV-1 strains (HIV-1, HIV-2 and SIV; RF, IIIB, SK1, MN, AZT-, nevirapine-, pyridinone-, NNRTI-resistant strains): effectively inhibited replication
activity against RT mutants, clinical strains, clades, HIV-2 and SIV (HIV-1, HIV-2 and SIV): active against
EC50 (HIV-1 N119(Nev^R)): 18 µM
EC50 (HIV-1NL4-3 Y181C): 20.9 µM
EC50 (HIV-1NL4-3 V1081): 20 µM
EC50 (HIV-1NL4-3 K103N): 17.3 µM
EC50 (HIV-1NL4-3 A986): 26.5 µM
EC50 (HIV-1NL4-3 V179D): 20.2 µM
EC50 (HIV-1NL4-3 Y188C): 19.4 µM
EC50 (HIV-1NL4-3 4XAZT): 10.7 µM
EC50 (HIV-1NL4-3 L74V): 19.8 µM
EC50 (HIV-1NL4-3 V1061): 20.8 µM
EC50 (HIV-1ADA; HIV-1ADA, monocyte/macrophage cultures, 50% reduction in p24, read-out: Mo/M.PHI. EC50): 8 µM
EC50 (HIV-1ADA; Mo/M.PHI., ADA, cell-free p24, Table 2, read-out: EC50): 2.1 µM
